What was measured:
[1] = compound: O=[As]([O-])(O)O.[K+] [potassium arsenate]; assay: thermal stability z-score vs DMSO; higher = more thermally stabilized by treatment; conditions: HeLa; arsenate concentration 1 mM
Experimental: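 Cellular thermal proteome profiling in HeLa cells treated with 1 mM arsenate for 1 h (DMSO pretreatment), heated to ten temperatures (37-66.3 °C). Soluble protein was quantified by TMT mass spectrometry relative to DMSO controls; the thermal stability score was transformed to a z-score; mean of n = 3 experiments.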

[2] = compound: NC(=O)CCCCC1CCSS1 [lipoamide]; assay: as above; conditions: HeLa, lipoamide concentration 100 µM
Experimental: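 Cellular thermal proteome profiling in HeLa cells. Cells were treated with 100 µM lipoamide for 1 h, with or without 1 mM arsenate for a further 1 h, then heated to ten temperatures (37-66.3 °C), and soluble protein was quantified by TMT mass spectrometry relative to 0.1% DMSO controls. The thermal stability score (sum of log2 fold changes minus the abundance score) was transformed to a z-score; mean of n = 3 experiments.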

[3] = arsenate co-treatment: 1 mM arsenate 1 h
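Further: each temperature applied for 3 min, abundance score taken as mean log2 fold change at the two lowest temperatures, z-score obtained by mean subtraction and division by SD.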

UniProt Q8IYU8, sequence (Q8IYU8 whole entry): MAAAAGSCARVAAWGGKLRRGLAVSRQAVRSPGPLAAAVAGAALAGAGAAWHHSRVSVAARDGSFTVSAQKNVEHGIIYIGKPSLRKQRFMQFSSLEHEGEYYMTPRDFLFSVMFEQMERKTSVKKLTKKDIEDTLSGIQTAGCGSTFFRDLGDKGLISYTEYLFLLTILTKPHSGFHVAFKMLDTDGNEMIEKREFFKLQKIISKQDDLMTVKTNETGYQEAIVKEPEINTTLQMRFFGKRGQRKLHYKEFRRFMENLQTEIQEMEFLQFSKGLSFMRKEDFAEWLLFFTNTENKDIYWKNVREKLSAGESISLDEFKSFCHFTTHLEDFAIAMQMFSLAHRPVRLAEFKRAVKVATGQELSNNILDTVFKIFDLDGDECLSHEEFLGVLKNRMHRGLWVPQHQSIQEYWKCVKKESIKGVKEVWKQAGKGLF
UniProt O95985, sequence (O95985 whole entry): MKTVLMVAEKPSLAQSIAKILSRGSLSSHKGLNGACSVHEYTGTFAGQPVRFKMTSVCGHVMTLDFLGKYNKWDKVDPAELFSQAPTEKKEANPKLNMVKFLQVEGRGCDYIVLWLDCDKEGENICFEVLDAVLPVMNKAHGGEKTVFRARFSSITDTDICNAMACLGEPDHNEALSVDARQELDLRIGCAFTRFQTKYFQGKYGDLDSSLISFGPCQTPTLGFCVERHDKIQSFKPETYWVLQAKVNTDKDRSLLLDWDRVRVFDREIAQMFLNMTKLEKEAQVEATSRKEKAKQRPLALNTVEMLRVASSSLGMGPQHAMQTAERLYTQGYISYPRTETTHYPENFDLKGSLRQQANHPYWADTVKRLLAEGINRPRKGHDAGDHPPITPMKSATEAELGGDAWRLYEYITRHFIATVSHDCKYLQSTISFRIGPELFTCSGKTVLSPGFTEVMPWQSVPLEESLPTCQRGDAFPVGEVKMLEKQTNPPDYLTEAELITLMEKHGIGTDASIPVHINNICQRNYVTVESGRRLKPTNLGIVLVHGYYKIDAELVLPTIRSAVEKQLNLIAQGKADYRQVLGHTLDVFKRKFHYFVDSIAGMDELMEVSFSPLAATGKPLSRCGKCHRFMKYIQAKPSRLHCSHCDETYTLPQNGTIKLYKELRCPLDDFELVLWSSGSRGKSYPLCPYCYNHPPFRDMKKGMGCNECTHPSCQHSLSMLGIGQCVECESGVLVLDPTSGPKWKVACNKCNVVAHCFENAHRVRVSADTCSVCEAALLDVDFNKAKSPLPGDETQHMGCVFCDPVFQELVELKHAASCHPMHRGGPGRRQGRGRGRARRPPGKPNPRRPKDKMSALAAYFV
UniProt Q9Y5L4, sequence (Q9Y5L4 whole entry): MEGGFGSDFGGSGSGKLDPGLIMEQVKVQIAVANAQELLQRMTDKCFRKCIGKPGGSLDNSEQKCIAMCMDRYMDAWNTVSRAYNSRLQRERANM
UniProt Q15020, sequence (Q15020 whole entry): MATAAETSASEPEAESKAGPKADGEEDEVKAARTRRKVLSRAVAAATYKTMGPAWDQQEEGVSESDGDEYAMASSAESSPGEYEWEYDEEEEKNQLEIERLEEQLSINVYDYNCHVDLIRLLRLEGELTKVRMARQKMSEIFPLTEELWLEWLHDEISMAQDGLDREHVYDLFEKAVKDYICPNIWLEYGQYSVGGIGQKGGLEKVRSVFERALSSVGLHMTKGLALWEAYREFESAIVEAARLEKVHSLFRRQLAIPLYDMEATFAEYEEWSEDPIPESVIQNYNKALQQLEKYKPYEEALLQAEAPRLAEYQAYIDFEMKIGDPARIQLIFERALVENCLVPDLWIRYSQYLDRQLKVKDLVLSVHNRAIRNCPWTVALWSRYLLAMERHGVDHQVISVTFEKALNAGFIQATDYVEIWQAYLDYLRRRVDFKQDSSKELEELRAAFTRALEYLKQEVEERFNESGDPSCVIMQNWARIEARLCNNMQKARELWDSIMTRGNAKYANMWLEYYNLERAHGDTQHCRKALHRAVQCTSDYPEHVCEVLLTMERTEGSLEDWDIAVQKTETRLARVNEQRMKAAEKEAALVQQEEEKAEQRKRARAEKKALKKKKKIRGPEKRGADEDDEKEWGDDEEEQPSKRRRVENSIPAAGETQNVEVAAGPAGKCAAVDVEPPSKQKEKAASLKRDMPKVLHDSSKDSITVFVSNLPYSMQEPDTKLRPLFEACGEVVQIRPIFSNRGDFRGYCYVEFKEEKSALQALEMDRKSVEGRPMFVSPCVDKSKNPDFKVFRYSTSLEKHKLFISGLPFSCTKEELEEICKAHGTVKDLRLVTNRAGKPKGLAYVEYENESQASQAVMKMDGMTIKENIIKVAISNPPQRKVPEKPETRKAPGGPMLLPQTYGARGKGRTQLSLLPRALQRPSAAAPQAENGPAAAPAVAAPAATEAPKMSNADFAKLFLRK
UniProt P19525, sequence (P19525 whole entry): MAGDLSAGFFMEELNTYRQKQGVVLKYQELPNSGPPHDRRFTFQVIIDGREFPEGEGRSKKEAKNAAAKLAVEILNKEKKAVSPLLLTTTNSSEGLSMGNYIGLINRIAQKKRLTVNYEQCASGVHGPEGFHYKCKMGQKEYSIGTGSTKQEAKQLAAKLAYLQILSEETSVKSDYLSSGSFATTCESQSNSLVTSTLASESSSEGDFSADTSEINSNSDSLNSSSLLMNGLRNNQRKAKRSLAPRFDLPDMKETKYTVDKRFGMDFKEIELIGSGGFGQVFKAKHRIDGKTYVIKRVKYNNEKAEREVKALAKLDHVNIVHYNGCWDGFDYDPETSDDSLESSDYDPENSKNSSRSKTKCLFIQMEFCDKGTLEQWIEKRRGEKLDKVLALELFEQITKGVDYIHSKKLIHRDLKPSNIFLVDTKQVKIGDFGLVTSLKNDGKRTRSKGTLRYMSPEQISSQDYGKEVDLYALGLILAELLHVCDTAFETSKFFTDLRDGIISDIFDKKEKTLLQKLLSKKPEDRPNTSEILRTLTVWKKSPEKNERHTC
UniProt O00399, sequence (O00399 whole entry): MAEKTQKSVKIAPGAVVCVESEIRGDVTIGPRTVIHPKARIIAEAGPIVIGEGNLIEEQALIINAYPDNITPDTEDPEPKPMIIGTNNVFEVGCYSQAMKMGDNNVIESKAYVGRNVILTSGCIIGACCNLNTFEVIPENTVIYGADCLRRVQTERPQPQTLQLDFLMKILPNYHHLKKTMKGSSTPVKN
UniProt P35222, sequence (P35222 whole entry): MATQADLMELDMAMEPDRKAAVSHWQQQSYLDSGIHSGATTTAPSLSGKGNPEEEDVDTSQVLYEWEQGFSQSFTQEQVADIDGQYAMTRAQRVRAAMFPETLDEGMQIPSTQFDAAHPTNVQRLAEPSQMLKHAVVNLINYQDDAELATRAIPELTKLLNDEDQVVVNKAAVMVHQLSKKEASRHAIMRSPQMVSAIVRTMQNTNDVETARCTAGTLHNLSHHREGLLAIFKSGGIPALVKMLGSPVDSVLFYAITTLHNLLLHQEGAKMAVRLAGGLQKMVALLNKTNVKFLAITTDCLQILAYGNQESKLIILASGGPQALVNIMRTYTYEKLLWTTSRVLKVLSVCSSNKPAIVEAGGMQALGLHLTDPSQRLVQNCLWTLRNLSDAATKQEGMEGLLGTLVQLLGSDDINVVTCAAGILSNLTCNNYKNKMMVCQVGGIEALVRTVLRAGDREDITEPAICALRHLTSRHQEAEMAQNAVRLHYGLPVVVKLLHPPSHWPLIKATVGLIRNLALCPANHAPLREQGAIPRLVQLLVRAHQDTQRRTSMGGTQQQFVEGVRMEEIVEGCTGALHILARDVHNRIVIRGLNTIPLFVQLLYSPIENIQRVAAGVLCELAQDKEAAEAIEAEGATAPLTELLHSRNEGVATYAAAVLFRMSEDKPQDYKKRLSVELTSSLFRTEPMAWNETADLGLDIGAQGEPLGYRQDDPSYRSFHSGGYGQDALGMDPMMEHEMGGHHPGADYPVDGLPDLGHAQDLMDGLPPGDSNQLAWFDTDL
UniProt Q9UGV2, sequence (Q9UGV2 whole entry): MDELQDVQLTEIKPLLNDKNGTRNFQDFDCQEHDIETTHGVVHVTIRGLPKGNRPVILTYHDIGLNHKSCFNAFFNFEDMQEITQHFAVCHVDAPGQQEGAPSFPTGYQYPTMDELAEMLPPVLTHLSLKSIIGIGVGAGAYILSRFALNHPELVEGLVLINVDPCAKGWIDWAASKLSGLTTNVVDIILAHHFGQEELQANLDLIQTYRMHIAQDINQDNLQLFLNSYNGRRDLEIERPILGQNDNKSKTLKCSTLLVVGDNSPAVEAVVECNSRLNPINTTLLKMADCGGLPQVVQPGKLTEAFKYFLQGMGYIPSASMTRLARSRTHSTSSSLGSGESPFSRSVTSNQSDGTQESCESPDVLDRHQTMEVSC
UniProt Q00577, sequence (Q00577 whole entry): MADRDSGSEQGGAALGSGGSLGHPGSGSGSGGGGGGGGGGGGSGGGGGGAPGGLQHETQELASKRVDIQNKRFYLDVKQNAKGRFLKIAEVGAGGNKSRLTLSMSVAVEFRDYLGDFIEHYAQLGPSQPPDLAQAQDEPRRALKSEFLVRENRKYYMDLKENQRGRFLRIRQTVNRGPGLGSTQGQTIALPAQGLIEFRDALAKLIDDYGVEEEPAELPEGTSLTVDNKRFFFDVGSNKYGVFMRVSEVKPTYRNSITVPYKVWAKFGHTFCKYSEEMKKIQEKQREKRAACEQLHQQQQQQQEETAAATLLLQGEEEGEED
UniProt O95166, sequence (O95166 whole entry): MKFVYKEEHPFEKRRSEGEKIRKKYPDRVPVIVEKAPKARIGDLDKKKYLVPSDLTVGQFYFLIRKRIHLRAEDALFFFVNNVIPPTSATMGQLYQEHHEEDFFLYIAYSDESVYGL
UniProt Q9BTT0, sequence (Q9BTT0 whole entry): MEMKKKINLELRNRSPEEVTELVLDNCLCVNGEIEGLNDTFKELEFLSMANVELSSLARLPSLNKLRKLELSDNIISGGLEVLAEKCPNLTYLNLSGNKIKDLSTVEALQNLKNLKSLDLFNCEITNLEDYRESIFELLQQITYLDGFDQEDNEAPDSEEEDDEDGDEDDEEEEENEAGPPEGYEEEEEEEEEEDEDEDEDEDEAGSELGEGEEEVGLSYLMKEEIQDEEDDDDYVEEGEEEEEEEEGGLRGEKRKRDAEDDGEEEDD

Target	thermal stability z-score [1]	thermal stability z-score [2, 3]	thermal stability z-score ([2]; arsenate co-treatment: none)
NANS (UniProt Q9NR45)	0.887	0.185	0.107
RILPL1 (UniProt Q5EBL4)	1.21	0.571	0.0309
EXOC2 (UniProt Q96KP1)	0.575	-0.195	-0.453
UNC45A (UniProt Q9H3U1)	0.158	-0.649	-0.167
CYLD (UniProt Q9NQC7)	0.144	-0.238	0.0192
KIAA0930 (UniProt Q6ICG6)	0.706	0.193	0.227
WBP11 (UniProt Q9Y2W2)	0.254	0.102	0.283
EIF3J (UniProt O75822)	0.444	0.395	-0.118
AARS (UniProt P49588)	-1.29	-0.195	-0.297
NDUFB3 (UniProt O43676)	0.36	0.00119	-0.236
GTF2H2|GTF2H2C	-0.166	0.00796	-0.0811
TFAM (UniProt Q00059)	-0.121	-0.198	-0.126
AACS (UniProt Q86V21)	0.635	-0.257	-0.135
SRSF2 (UniProt Q01130)	-0.0469	0.414	0.274
LRP6 (UniProt O75581)	-0.531	-2.59	-1.1
ANP32E (UniProt Q9BTT0)	-4	-1.1	0.32
FAHD2A (UniProt Q96GK7)	-0.0563	0.146	-0.0859
ITGA5 (UniProt P08648)	0.211	0.408	0.203
BSDC1 (UniProt Q9NW68)	-0.209	-0.585	-0.361
UBLCP1 (UniProt Q8WVY7)	0.8	0.309	-0.101
DBN1 (UniProt Q16643)	-0.684	0.625	-0.407
DLG5 (UniProt Q8TDM6)	0.0056	0.227	-0.0304
CTNNB1 (UniProt P35222)	0.308	0.545	0.798
TMCO1 (UniProt Q9UM00)	-0.687	0.0581	0.305

Target	thermal stability z-score [1]	thermal stability z-score [2, 3]	thermal stability z-score ([2]; arsenate co-treatment: none)
MZT2B (UniProt Q6NZ67)	0.0663	0.0548	0.181
GNAI3 (UniProt P08754)	-1.24	0.0735	0.0764
MICU2 (UniProt Q8IYU8)	0.583	-0.422	-0.315
STXBP3 (UniProt O00186)	0.223	0.948	0.942
MBP (UniProt P02686)	0.222	1.96	0.197
MTHFD2 (UniProt P13995)	0.474	-1.43	0.0012
ZFYVE9 (UniProt O95405)	-0.021	-0.0978	-0.0701
EIF2AK2 (UniProt P19525)	-1.01	-0.0654	-0.252
MYO1B (UniProt O43795)	-2.1	0.967	0.54
OPTN (UniProt Q96CV9)	1.01	-0.94	-0.477
IDH2 (UniProt P48735)	-0.911	-0.129	0.0632
HMGCL (UniProt P35914)	5.41	1.01	0.651
MAPKAPK2 (UniProt P49137)	0.48	0.451	0.459
SART3 (UniProt Q15020)	-1.04	-0.326	0.203
SMS (UniProt P52788)	4.34	0.652	0.823
SLC12A4 (UniProt Q9UP95)	-0.606	-0.481	-1.18
TIMM13 (UniProt Q9Y5L4)	-0.381	1.99	1.56
PURA (UniProt Q00577)	-0.0389	0.195	-0.028
DERL2 (UniProt Q9GZP9)	0.0606	-0.00701	-0.0318
IARS (UniProt P41252)	0.763	-0.197	-0.0191
DNAJC2 (UniProt Q99543)	1.09	-0.0501	0.0208
UBE3B (UniProt Q7Z3V4)	-0.212	-0.0453	-0.155
TMEM223 (UniProt A0PJW6)	1.09	-0.653	0.466
MRPL23 (UniProt Q16540)	0.525	0.205	0.755

Target	thermal stability z-score [1]	thermal stability z-score [2, 3]	thermal stability z-score ([2]; arsenate co-treatment: none)
TOP3B (UniProt O95985)	-0.73	0.2	-0.391
RAB14 (UniProt P61106)	0.48	0.738	0.522
SMARCC2 (UniProt Q8TAQ2)	0.305	1.35	1.85
IFIT1 (UniProt P09914)	0.419	-0.626	-0.265
PTAR1 (UniProt Q7Z6K3)	0.1	0.548	0.408
GNAO1 (UniProt P09471)	-0.313	0.151	-0.44
YAP1 (UniProt P46937)	0.0991	0.509	0.727
TMEM9B (UniProt Q9NQ34)	0.838	0.157	0.52
MSRB3 (UniProt Q8IXL7)	0.269	0.866	0.887
APEX1 (UniProt P27695)	-0.345	-0.558	0.406
SLC2A3 (UniProt P11169)	-0.293	0.481	0.126
MANBAL (UniProt Q9NQG1)	0.0493	1.06	1.59
GABARAP (UniProt O95166)	-0.223	-0.21	-0.417
BRF1 (UniProt Q92994)	0.035	-0.0333	-0.111
DCTN6 (UniProt O00399)	-0.333	-0.771	-0.761
SYNRG (UniProt Q9UMZ2)	0.478	-0.398	-0.18
BCR (UniProt P11274)	0.0296	-0.0665	-0.0479
ECH1 (UniProt Q13011)	-0.0954	-0.108	0.163
PKM (UniProt P14618)	-0.166	0.109	0.0166
NDRG3 (UniProt Q9UGV2)	-1.65	-0.101	-0.269
SUGT1 (UniProt Q9Y2Z0)	0.388	0.611	0.585
NOS1AP (UniProt O75052)	-1.45	0.676	-0.0802
SRP14 (UniProt P37108)	-0.436	-0.152	-0.0661

From the supplement of paper PMC12463676, “Small-molecule dissolution of stress granules by redox modulation benefits ALS models” (Nature Chemical Biology, 2025)
